Results taken from PMC10605449 (Biosensors, 2023).
Changes are numbered by the printed parent chain.

Columns and labels:
Assay type in all cases: binding
MARK3(48-370) Mutant 3 = biological target: T1, MARK3(48-370) Mutant 3 (Homo sapiens, UniProt P27448, A68G/E139D/F67Y/I62L/L128I/L130I/N66T/T204H/V116I/V205Q); experiment: SPR Extract2Chip, cellular biotinylated MARK3 Mutant 3, GSK461364A injected; settings: 15 °C
T1 construct: made in house; host or cells: E. coli Rosetta 2, co-expressed with BirA; soluble lysate used without purification
T1 sequence (P27448 48-370 I62L/N66T/F67Y/A68G/V116I/L128I/L130I/E139D/T204H/V205Q): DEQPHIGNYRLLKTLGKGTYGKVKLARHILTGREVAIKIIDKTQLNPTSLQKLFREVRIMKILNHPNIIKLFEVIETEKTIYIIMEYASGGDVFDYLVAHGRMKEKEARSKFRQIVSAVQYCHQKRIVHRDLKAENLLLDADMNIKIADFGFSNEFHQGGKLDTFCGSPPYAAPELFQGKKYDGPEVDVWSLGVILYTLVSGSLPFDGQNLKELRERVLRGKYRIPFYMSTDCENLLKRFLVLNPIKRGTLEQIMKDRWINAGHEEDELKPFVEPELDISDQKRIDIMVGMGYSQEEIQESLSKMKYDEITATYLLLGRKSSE
Description: (§1) The cellular biotinylation of MARK3(48-370) kinase domain mutants followed the same approach as described for CypD. The 6 different mutants were expressed in Rosetta^TM 2 in PB media, and induced with 100 µM IPTG overnight at 18 °C.
(§2) The cellular biotinylated MARK3 NUAK2-like mutants were immobilized using the approach described in Section 2.5.2. The soluble cell lysates were diluted to a final concentration of 200 µg/mL, then injected over the neutravidin surfaces for 200 or 1400 s in order to reach 1000 to 2300 RU.
(§3) The interaction analysis cycles consisted of 140 s of sample injection followed by 350 to 600 s of running buffer flow. The running buffer was composed of 20 mM HEPES pH 7.4, 100 mM NaCl, 5 mM MgCl2, 1 mM EGTA, 1 mM DTT, 0.05% Tween-20, and 2% DMSO, and the experiment was performed at 15 °C.
(§4) All sensorgrams were processed by first subtracting the binding response recorded from the control surface (reference spot, where only the avidin protein is immobilized), followed by subtraction of the buffer blank injection from the reaction spot. All datasets were fitted to a simple 1:1 Langmuir interaction model to determine the kinetic rate constants, and the interaction affinity was additionally calculated at a steady state when applicable. […]

MARK3(48-370) Mutant 4 = biological target: T2, MARK3(48-370) Mutant 4 (Homo sapiens, UniProt P27448, A68G/E139D/F199L/F67Y/I62L/L128I/L130I/N66T/T204H/V116I/V205Q); experiment: SPR Extract2Chip, cellular biotinylated MARK3 Mutant 4, GSK461364A injected; settings: 15 °C
T2 construct: made in house; host or cells: E. coli Rosetta 2, co-expressed with BirA; soluble lysate used without purification
T2 sequence (P27448 48-370 I62L/N66T/F67Y/A68G/V116I/L128I/L130I/E139D/F199L/T204H/V205Q): T1 sequence (P27448 48-370 I62L/N66T/F67Y/A68G/V116I/L128I/L130I/E139D/T204H/V205Q) with F152L
Description: as §1, §2, §3, §4

MARK3(48-370) Mutant 6 = biological target: T3, MARK3(48-370) Mutant 6 (Homo sapiens, UniProt P27448, A68G/E139D/F199L/F67Y/G137R/I62L/L128I/L130I/L72K/N66T/T204H/V116I/V205Q); experiment: SPR Extract2Chip, cellular biotinylated MARK3 Mutant 6, GSK461364A injected; settings: 15 °C
T3 construct: made in house; host or cells: E. coli Rosetta 2, co-expressed with BirA; soluble lysate used without purification
T3 sequence (P27448 48-370 I62L/N66T/F67Y/A68G/L72K/V116I/L128I/L130I/G137R/E139D/F199L/T204H/V205Q): T1 sequence (P27448 48-370 I62L/N66T/F67Y/A68G/V116I/L128I/L130I/E139D/T204H/V205Q) with L25K, G90R, F152L
Description: as §1, §2, §3, §4

NUAK2(1-628) = biological target: T4, NUAK2(1-628) (Homo sapiens, UniProt Q9H093); experiment: SPR, pure GST-NUAK2(1-628) immobilized by amine coupling, GSK461364A injected; settings: pure NUAK2(1-628); 15 °C
T4 construct: GST-NUAK2(1-628) was purchased from Carna Biosciences, Inc (Kobe, Japan); purchased Carna Biosciences, Inc (Kobe, Japan)
T4 sequence (Q9H093 1-628): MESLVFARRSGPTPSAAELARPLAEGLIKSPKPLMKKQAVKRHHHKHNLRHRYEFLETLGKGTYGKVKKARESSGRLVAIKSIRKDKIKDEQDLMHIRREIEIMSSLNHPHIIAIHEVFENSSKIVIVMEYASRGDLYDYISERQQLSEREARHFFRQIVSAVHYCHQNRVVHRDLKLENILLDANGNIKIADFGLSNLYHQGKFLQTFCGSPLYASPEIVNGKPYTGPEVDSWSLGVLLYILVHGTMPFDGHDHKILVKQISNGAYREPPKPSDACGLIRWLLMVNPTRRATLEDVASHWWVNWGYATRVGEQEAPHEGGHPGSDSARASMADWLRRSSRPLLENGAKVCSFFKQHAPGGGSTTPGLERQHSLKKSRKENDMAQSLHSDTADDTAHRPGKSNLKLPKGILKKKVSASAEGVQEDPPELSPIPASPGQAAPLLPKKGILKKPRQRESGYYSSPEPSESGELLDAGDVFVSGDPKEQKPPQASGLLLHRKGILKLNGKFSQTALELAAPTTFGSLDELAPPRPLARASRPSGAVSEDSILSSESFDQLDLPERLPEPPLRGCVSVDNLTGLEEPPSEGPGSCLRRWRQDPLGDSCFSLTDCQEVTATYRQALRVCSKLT
Description: as §3
All sensorgrams were processed by first subtracting the binding response recorded from the control surface (reference spot, where only the avidin protein is immobilized), followed by subtraction of the buffer blank injection from the reaction spot. All datasets were fitted to a simple 1:1 Langmuir interaction model to determine the kinetic rate constants, and the interaction affinity was additionally calculated at a steady state when applicable. In cases where small molecules were present during the assay, a DMSO solvent correction (1–3%) was applied to account for variations in bulk signal and to achieve high-quality data. The experiments with immobilized purified proteins were performed on a Biacore 4000 (Cytiva, Uppsala, Sweden), and the interaction was evaluated using the provided Biacore 4000 evaluation software, while the experiments with soluble cell lysates on a Biacore T200 (Cytiva, Uppsala, Sweden) used the provided Biacore T200 evaluation software. All SPR experiments were performed in duplicate.

kd ± SD (MARK3(48-370) Mutant 3): 0.028 ± 0.003 s⁻¹
kd ± SD (MARK3(48-370) Mutant 4): 0.029 ± 0.0028 s⁻¹
kd ± SD (MARK3(48-370) Mutant 6): 0.021 ± 0.0012 s⁻¹
kd ± SD (NUAK2(1-628)): 0.031 ± 0.017 s⁻¹
Structure (SMILES): C[C@@H](Oc1cc(-n2cnc3ccc(CN4CCN(C)CC4)cc32)sc1C(N)=O)c1ccccc1C(F)(F)F [GSK461364A]
